From ChEMBL document CHEMBL5126518, “Quercetin derivatives: Drug design, development, and biological activities, a review” (Eur J Med Chem, 2022)
Values after ≈ are worked out from the molar mass of the structure shown.

Key:
[1] = Antioxidant activity assessed as DPPH radical scavenging activity up to 2 mM relative to control; assay type: functional
Candida albicans [2] = assay: Antifungal activity against Candida albicans 527/14 assessed as fungal growth inhibition measured after 24 hrs by microdilution assay; assay type: functional
Candida albicans [3] = assay: Antifungal activity against Candida albicans 10/15 assessed as fungal growth inhibition measured after 24 hrs by microdilution assay; assay type: functional
Candida albicans [4] = assay: Antifungal activity against Candida albicans 13/15 assessed as fungal growth inhibition measured after 24 hrs by microdilution assay; assay type: functional
Candida albicans [5] = assay: Antifungal activity against Candida albicans 475/15 assessed as fungal growth inhibition measured after 24 hrs by microdilution assay; assay type: functional
MDA-MB-231 [6] = assay: Antiproliferative activity against human MDA-MB-231 cells assessed as cell growth inhibition measured after 72 hrs by MTT assay; assay type: functional, cell-based; settings: MDA-MB-231, 72 h
HCT-116 [7] = assay: Anticancer activity against human HCT-116 cells xenografted in mouse assessed as fold decrease in tumor growth measured after 3 weeks by digital caliper method; assay type: functional
HCT-116 [8] = assay: Antiproliferative activity against human HCT-116 cells assessed as cell growth inhibition by Z2 coulter counter based analysis; assay type: functional
Mus musculus = species: Mus musculus; assay: Anticancer activity against ApcMin harboring mouse model assessed as fold increase in p53 expression measured after 16 weeks by […]; assay type: functional, Neoplasm
[9] = Selectivity ratio of GI50 for cytotoxicity against human DU-145 cells to GI50 for cytotoxicity against human PC-3 cells by MTT assay; assay type: functional
PC-3 = assay: Cytotoxicity against human PC-3 cells assessed as cell growth inhibition measured after 48 hrs by MTT assay; assay type: functional
[10] = molecular target: Bcl-2-like protein 1 (Homo sapiens) (UniProt Q07817); assay: Binding affinity to recombinant human Bcl-xL assessed as change in enthalpy by MM-PBSA method
Sequence of Bcl-2-like protein 1 (Homo sapiens) (Q07817 whole entry): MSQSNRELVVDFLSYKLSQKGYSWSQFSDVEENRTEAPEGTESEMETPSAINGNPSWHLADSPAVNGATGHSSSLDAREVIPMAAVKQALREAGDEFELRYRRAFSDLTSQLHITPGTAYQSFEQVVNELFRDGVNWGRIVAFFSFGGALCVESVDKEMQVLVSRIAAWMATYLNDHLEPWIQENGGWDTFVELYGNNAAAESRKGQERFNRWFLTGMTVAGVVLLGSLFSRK

[11] = Cytotoxicity against MDCK cells assessed as reduction in cell viability incubated for 48 hrs by MTT assay; assay type: toxicity, cell-based, Canis lupus familiaris; settings: dog, read-out: CTD50
[12] = Selectivity index, ratio of CTD50 for cytotoxicity against MDCK cells to EC50 for antiviral activity against Influenza A H1N1/pdm09 infected in MDCK cells; assay type: toxicity, cell-based; settings: dog, read-out: Selectivity Index
Influenza A virus = assay: Antiviral activity against Influenza A virus H1N1/pdm09 infected in MDCK cells pretreated with compound for 1 hr followed virus infection measured after 48 hrs; assay type: functional, organism-based
[13] = Antioxidant activity assessed as DPPH radical scavenging activity after 30 mins under dark condition; assay type: functional
[14] = molecular target: Urease subunit alpha/Urease subunit beta (Helicobacter pylori (strain ATCC 700392 / 26695) (Campylobacterpylori), UniProt P69996); assay: Inhibition of Helicobacter pylori urease assessed as measuring ammonia production incubated for 1.5 hr by indophenol method; assay type: protein-complex assay
Sequence of Urease subunit alpha/Urease subunit beta (P69996 whole entry): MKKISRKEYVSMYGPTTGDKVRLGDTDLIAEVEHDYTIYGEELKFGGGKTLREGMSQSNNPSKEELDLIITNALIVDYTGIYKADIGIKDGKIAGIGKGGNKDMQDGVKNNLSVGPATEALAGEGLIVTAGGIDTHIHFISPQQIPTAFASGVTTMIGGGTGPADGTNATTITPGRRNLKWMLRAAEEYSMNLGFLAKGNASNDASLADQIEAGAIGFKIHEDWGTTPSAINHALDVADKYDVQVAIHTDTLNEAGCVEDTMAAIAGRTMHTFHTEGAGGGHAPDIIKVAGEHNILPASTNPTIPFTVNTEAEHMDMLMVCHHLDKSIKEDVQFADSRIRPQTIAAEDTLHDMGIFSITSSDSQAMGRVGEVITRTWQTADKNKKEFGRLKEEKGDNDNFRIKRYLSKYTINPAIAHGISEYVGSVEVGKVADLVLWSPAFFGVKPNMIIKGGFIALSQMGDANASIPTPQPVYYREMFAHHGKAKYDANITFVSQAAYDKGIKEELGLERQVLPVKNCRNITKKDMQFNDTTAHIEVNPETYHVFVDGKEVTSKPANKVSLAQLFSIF
Sequence of Urease subunit alpha/Urease subunit beta (P14916 whole entry, further chain): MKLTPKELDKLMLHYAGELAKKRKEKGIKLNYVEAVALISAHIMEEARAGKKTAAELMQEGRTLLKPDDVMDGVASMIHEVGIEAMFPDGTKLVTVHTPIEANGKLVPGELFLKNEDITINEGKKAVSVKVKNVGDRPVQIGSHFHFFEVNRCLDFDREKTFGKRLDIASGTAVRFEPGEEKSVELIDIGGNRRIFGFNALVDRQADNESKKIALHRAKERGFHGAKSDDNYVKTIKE

[15] = Competitive inhibition of xanthine oxidase (unknown origin) at 0.4 uM using xanthine as substrate preincubated with substrate for 1 min followed by compound addition by double beam spectrophotometer analysis relative to control
[16] = Antioxidant activity assessed as ABTS radical scavenging activity at 10 wt% incubated for 6 mins in presence of Si and PCL50 by UV spectrophotometer analysis relative to control; assay type: functional
[17] = Non-competitive inhibition of xanthine oxidase (unknown origin) at 0.4 uM using xanthine as substrate preincubated with substrate for 1 min followed by compound addition by double beam spectrophotometer analysis relative to control
J774.A1 = assay: Inhibition of LPS-induced NO production in mouse J774.A1 cells pre-incubated with compound for 1 hr followed by LPS stimulation for 24 hrs by ELISA assay; assay type: functional, cell-based
[18] = Antioxidant activity assessed as ABTS radical scavenging activity at 5 wt% incubated for 6 mins in presence of Si and PCL50 by UV spectrophotometer analysis relative to control; assay type: functional
[19] = Antioxidant activity assessed as ABTS radical scavenging activity at 15 wt% incubated for 6 mins in presence of Si and PCL50 by UV spectrophotometer analysis relative to control; assay type: functional
MCF7 [20] = assay: Antiproliferative activity against human MCF7 assessed as reduction in cell viability incubated for 48 hrs by MTT assay; assay type: functional
MCF7 [21] = assay: Induction of apoptosis in human MCF7 cells assessed as early apoptotic cells at 50 uM measured after 12 hrs by annexin V-FITC/propidium iodide staining based flow cytometry relative to control; assay type: functional
[22] = Metal chelating activity assessed as compound-Cu2+ complex formation by measuring binding energy
[23] = Metal chelating activity assessed as Zn2+-compound complex formation by measuring binding energy
[24] = Metal chelating activity assessed as compound-Fe2+ complex formation by measuring binding energy
MDA-MB-231 [25] = assay: Antiproliferative activity against human MDA-MB-231 cells assessed as cell growth inhibition measured after 48 hrs by MTT assay; assay type: functional, cell-based; settings: MDA-MB-231, 48 h
MDA-MB-231 [26] = assay: Antiproliferative activity against human MDA-MB-231 cells assessed as cell growth inhibition measured after 48 hrs by MTT assay relative to control; assay type: functional; parameters: scale not given: the % may be the effect or the level left
Staphylococcus aureus [27] = assay: Antibacterial activity against Staphylococcus aureus ATCC 12600 assessed as cell growth inhibition by agar dilution method; assay type: functional
[28] = Inhibition of Escherichia coli topoisomerase 2 supercoiling activity by gel electrophoresis
Listeria monocytogenes = assay: Antibacterial activity against Listeria monocytogenes ATCC 15313 assessed as cell growth inhibition by agar dilution method; assay type: functional
[29] = test system: Staphylococcus gallinarum; assay: Antibacterial activity against Staphylococcus gallinarum ATCC 9184 assessed as cell growth inhibition by agar dilution method; assay type: functional
[30] = Inhibition of Escherichia coli topoisomerase 4 decatenation activity by gel electrophoresis
Escherichia coli = assay: Antibacterial activity against Escherichia coli ATCC 25922 assessed as cell growth inhibition by agar dilution method; assay type: functional
Pseudomonas aeruginosa [31] = assay: Antibacterial activity against carbapenem-resistant Pseudomonas aeruginosa CCARM2321 assessed as fold reduction in ceftazidime MIC incubated for 20 hrs by checkerboard synergy test; assay type: functional
Staphylococcus aureus [32] = assay: Antibiofilm activity against vancomycin-intermediate Staphylococcus aureus ATCC 700699 assessed as inhibition of biofilm formation incubated for 24 hrs by crystal violet staining based assay; assay type: functional, organism-based; settings: ATCC 700699, 24 h
Pseudomonas aeruginosa [33] = assay: In vivo antibacterial activity against carbapenem-susceptible Pseudomonas aeruginosa ATCC 27853 infected in CD-1 mouse assessed as mouse survival at 40 mg/kg per day administered for 7 days in presence of ceftazidime; assay type: functional; settings: time 7 day
Staphylococcus aureus [34] = assay: Antibiofilm activity against methicillin sensitive Staphylococcus aureus ATCC 29213 assessed as inhibition of biofilm formation incubated for 24 hrs by crystal violet staining based assay; assay type: functional, organism-based; settings: ATCC 29213, 24 h
Staphylococcus aureus [35] = assay: Antibiofilm activity against methicillin resistant Staphylococcus aureus AMCSA 5016 assessed as inhibition of biofilm formation incubated for 24 hrs by crystal violet staining based assay; assay type: functional, organism-based; settings: AMCSA 5016, 24 h
Acinetobacter baumannii = assay: Antibacterial activity against carbapenem-resistant Acinetobacter baumannii AMC-AB 643 assessed as fold reduction in ceftazidime MIC incubated for 20 hrs by checkerboard synergy test; assay type: functional
Staphylococcus aureus [36] = assay: Antibiofilm activity against heteroresistant vancomycin-intermediate Staphylococcus aureus ATCC 700698 assessed as inhibition of biofilm formation incubated for 24 hrs by crystal violet staining based assay; assay type: functional, organism-based; settings: ATCC 700698, 24 h

## Nc1c(-c2ccc(O)c(O)c2)oc2cc(O)cc(O)c2c1=O
[1]
  Activity: 80%

## O=c1cc(-c2ccc(O)c(O)c2)oc2cc(O)cc(O)c12 [LUTEOLIN]
Candida albicans [2]
  MIC: 37.5 µg/mL (≈ 131 µM)
Candida albicans [3]
  MIC: 37.5 µg/mL (≈ 131 µM)
Candida albicans [4]
  MIC: 37.5 µg/mL (≈ 131 µM)
Candida albicans [5]
  MIC: 37.5 µg/mL (≈ 131 µM)
MDA-MB-231 [6]
  IC50: 7.29 µM

## COc1cc(-c2oc3ccccc3c(=O)c2O)cc(OC)c1OC
HCT-116 [7]
  fold change (FC): 1.5
HCT-116 [8]
  IC50: 3.3 µM
Mus musculus
  fold change (FC): 3

## O=C(O)CC[C@H](NC(=O)Oc1ccc(-c2oc3cc(O)cc(O)c3c(=O)c2O)cc1O)C(=O)O
[9]
  RatioGI50: 17
PC-3
  GI50: 6 µM
[10]
  deltaH: 47.2 kcal/mol

## CCOC1(Br)C(=O)c2c(O)c(Br)c(O)c(Br)c2OC1(Br)c1cc(O)c(O)c(Br)c1 (centres undefined)
[11]
  CC50 at 48 h: 97.7 µg/mL (≈ 134 µM)
[12]
  selectivity ratio: 16
Influenza A virus
  EC50: 6 µg/mL (≈ 8.26 µM)

## COc1cc(OC)c2c(=S)c(OC)c(-c3ccc(OC)c(OC)c3)oc2c1
[13]
  IC50: 360 µM

## O=c1c(O)c(-c2ccc(O)c(O)c2)oc2cc(O)cc(O)c12 [QUERCETIN]
Candida albicans [2]
  MIC: 37.5 µg/mL (≈ 124 µM)
[14]
  Ki: 9.34 µM
[15]
  inhibition: 50%
Candida albicans [3]
  MIC: 37.5 µg/mL (≈ 124 µM)
[16]
  Activity: 24.7%
Candida albicans [4]
  MIC: 37.5 µg/mL (≈ 124 µM)
[17]
  inhibition: 50%
J774.A1
  IC50: 49.1 µM
Candida albicans [5]
  MIC: 37.5 µg/mL (≈ 124 µM)
[1]
  Activity: 80%
[18]
  Activity: 15.6%
[19]
  Activity: 8.4%
[13]
  IC50: 4 µM
MCF7 [20]
  Activity: 70.8%
MCF7 [21]
  Activity: 44.1%
[22]
  Activity: 918 kcal/mol
[23]
  Activity: 939 kcal/mol
[24]
  Activity: 694 kcal/mol

## C[C@@H]1O[C@@H](OC[C@H]2O[C@@H](Oc3c(-c4ccc(O)c(O)c4)oc4cc(O)cc(O)c4c3=O)[C@H](O)[C@@H](O)[C@@H]2O)[C@H](O)[C@H](O)[C@H]1O [RUTIN]
Candida albicans [2]
  MIC: 37.5 µg/mL (≈ 61.4 µM)
Candida albicans [3]
  MIC: 37.5 µg/mL (≈ 61.4 µM)
Candida albicans [4]
  MIC: 37.5 µg/mL (≈ 61.4 µM)
Candida albicans [5]
  MIC: 37.5 µg/mL (≈ 61.4 µM)

## COc1cc(OC)c2/c(=N/c3ccccc3)c(OC)c(-c3ccc(OC)c(OC)c3)oc2c1
[13]
  IC50: 490 µM

## COc1cc(OC)c2c(=O)c(OC)c(-c3ccc(OC)c(OC)c3)oc2c1
MDA-MB-231 [25]
  IC50: 2.04 µM
MDA-MB-231 [26]
  Activity: 43.7%
[13]
  IC50: 620 µM

## COc1cc(OC)c2/c(=N/N)c(OC)c(-c3ccc(OC)c(OC)c3)oc2c1
[13]
  IC50: 40 µM

## CC(=O)OC[C@H]1OC(OC(C)=O)[C@H](NCc2c(O)cc(O)c3c(=O)cc(-c4ccc(O)c(O)c4)oc23)[C@@H](OC(C)=O)[C@@H]1OC(C)=O (some centres undefined)
Staphylococcus aureus [27]
  MIC: 1 µg/mL (≈ 1.55 µM)
[28]
  IC50: 0.25 µg/mL (≈ 0.387 µM)
Listeria monocytogenes
  MIC: 0.5 µg/mL (≈ 0.775 µM)
[29]
  MIC: 0.05 µg/mL (≈ 0.0775 µM)
[30]
  IC50: 0.25 µg/mL (≈ 0.387 µM)
Escherichia coli
  MIC: 2 µg/mL (≈ 3.1 µM)

## C[C@@H]1O[C@@H](OC[C@H]2O[C@@H](Oc3c(-c4ccc(O)c(O)c4)oc4c(CN5CCCC5)c(O)c(CN5CCCC5)c(O)c4c3=O)[C@H](O)[C@@H](O)[C@@H]2O)[C@H](O)[C@H](O)[C@H]1O
MDA-MB-231 [6]
  IC50: 7.57 µM

## O=c1c(O)c(-c2ccc(F)c(F)c2)oc2cc(O)cc(O)c12
Pseudomonas aeruginosa [31]
  fold change (FC): 8
Staphylococcus aureus [32]
  IC50: 1.8 µg/mL (≈ 5.88 µM)
Pseudomonas aeruginosa [33]
  Activity: 20%
Staphylococcus aureus [34]
  IC50: 1.8 µg/mL (≈ 5.88 µM)
[1]
  Activity: 50%
Staphylococcus aureus [35]
  IC50: 1.8 µg/mL (≈ 5.88 µM)
MCF7 [21]
  Activity: 47.7%
Acinetobacter baumannii
  fold change (FC): 4
Staphylococcus aureus [36]
  IC50: 1.8 µg/mL (≈ 5.88 µM)
